Active and inactive are the calls of the source. The rule behind the calls is not given here.
What was measured:
HL-60 = assay: Cytotoxicity against human HL-60 cells assessed as reduction in cell viability up to 70 uM after 48 hrs by WST-8 assay; format: functional, cell-based; details: dose microM <=70, time 48.0 hrs
Plasmodium falciparum = assay: Antimalarial activity against Plasmodium falciparum 3D7; format: functional, organism-based
Staphylococcus aureus = assay: Antimicrobial activity against Staphylococcus aureus 209 assessed as reduction in microbial growth up to 70 uM after 24 hrs; format: functional, organism-based; details: dose microM <=70, time 24.0 hrs
NRK = assay: Cytotoxicity against rat NRK cells infected with ts25 T-class mutant of Rous sarcoma virus Prague strain assessed as reduction in cell viability up to 70 uM after 48 hrs by WST-8 assay; format: functional, cell-based; details: dose microM <=70, time 48.0 hrs
Escherichia coli = assay: Antimicrobial activity against Escherichia coli HO141 assessed as reduction in microbial growth up to 70 uM after 24 hrs; format: functional, organism-based; details: dose microM <=70, time 24.0 hrs
HeLa = assay: Cytotoxicity against human HeLa cells assessed as reduction in cell viability up to 70 uM after 48 hrs by WST-8 assay; format: functional, cell-based; details: dose microM <=70, time 48.0 hrs
Candida albicans = assay: Antimicrobial activity against Candida albicans JCM1542 assessed as reduction in microbial growth up to 70 uM after 48 hrs; format: functional, organism-based; details: dose microM <=70, time 48.0 hrs
Pyricularia oryzae = assay: Antimicrobial activity against Pyricularia oryzae kita-1 assessed as reduction in microbial growth up to 70 uM after 48 hrs; format: functional, organism-based; details: dose microM <=70, time 48.0 hrs
Aspergillus fumigatus = assay: Antimicrobial activity against Aspergillus fumigatus Af293 assessed as reduction in microbial growth up to 70 uM after 48 hrs; format: functional, organism-based; details: dose microM <=70, time 48.0 hrs

`C\C1=C/C=C\C=C\[C@H](C)CNC(=O)CC(=O)C[C@@H]2O[C@H]3[C@@H]4[C@@H](C=C[C@H]1[C@H]42)[C@@H](O)C[C@H]3O` was tested, and the Activity (HL-60) was “inactive”, the IC50 (Plasmodium falciparum) was 12 µM and the Activity (Staphylococcus aureus) was “inactive”. The Activity (NRK) was “inactive”, the Activity (Escherichia coli) was “inactive” and the Activity (HeLa) was “inactive”. The Activity (Candida albicans) was “inactive”, the Activity (Pyricularia oryzae) was “inactive” and the Activity (Aspergillus fumigatus) was “inactive”.

— ChEMBL document CHEMBL4673303, “Heterologous Expression of the Biosynthetic Gene Cluster for Verticilactam and Identification of Analogues” (J Nat Prod, 2020)
